Laboratory results taken from article PMC3510438, “The transmembrane tyrosines Y56, Y91 and Y167 play important roles in determining the affinity and transport rate of the rabbit proton-coupled peptide transporter PepT1” (The International Journal of Biochemistry & Cell Biology, 2009).
Changes are numbered by the printed parent chain.

Key:
Assay in all cases: Uptake of tracer [3H]-D-Phe-L-Gln into Xenopus oocytes
Assay type in all cases: cell-based, rabbit
Y167F-rPepT1 = target: T1, Y167F-rPepT1 (Oryctolagus cuniculus, UniProt P36836, Y167F)
T1 construct: expressed in transfected cells; host or cells: Xenopus laevis oocytes injected with cRNA
T1 sequence (P36836 1-707 Y167F): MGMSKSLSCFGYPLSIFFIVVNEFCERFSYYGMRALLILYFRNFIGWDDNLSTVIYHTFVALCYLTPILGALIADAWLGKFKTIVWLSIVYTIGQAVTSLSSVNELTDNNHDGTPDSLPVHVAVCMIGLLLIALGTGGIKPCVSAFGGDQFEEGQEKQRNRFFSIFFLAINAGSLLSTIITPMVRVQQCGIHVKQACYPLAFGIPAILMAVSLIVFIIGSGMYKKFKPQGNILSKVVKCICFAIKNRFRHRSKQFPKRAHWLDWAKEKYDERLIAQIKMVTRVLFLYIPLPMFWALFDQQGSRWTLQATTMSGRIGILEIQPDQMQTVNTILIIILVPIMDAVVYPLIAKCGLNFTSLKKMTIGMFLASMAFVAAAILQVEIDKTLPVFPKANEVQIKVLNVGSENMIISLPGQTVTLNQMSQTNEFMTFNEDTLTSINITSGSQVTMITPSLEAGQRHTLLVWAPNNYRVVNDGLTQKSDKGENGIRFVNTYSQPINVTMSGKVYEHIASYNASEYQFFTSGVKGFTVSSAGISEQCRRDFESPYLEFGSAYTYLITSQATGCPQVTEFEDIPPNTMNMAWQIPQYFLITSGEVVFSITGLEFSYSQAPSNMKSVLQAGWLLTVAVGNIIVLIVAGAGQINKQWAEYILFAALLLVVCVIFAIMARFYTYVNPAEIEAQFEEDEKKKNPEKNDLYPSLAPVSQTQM
Experimental: (§1) rPepT1 constructs were linearised with XbaI (New England Biolabs, UK) and cRNA generated by in vitro transcription (T7 mMessage mMachine, Ambion, Cambridgeshire, UK). Xenopus laevis oocytes were obtained under MS222 anaesthesia (0.2%, w/v) in accordance with the UK Animals (Scientific Procedures) Act, 1986, and maintained at 18 °C in modified Barth's medium (88 mM NaCl, 1 mM KCl, 0.82 mM MgSO4, 2.4 mM NaHCO3, 0.42 mM CaCl2, 10 mM Hepes, 5 mM sodium pyruvate, 50 μg ml^−1 gentamicin (Fluka, Poole, UK), adjusted to pH 7.6 with 1 M NaOH). Transport measurements were performed at least 72 h after micro-injection of oocytes with 27nl cRNA (1 μg/μl), with medium changed daily.
(§2) Uptake of [^3H]-D-Phe-L-Gln (17.4 Ci/mmole, custom synthesised, Cambridge Research Biochemicals, Stockton-on-Tees, UK) was performed as previously described ([Meredith, 2004]). Briefly, 5 oocytes were incubated in 100 μl of uptake medium (95 mM NaCl, 2 mM KCl, 1 mM CaCl2, 0.42 mM MgCl2, 10 mM Tris/Hepes pH 7.4 or Tris/Mes pH 5.5) with tracer (0.4 μM) [^3H]-D-Phe-L-Gln. After incubation, the oocytes were washed sequentially five times in 1 ml of ice-cold 120 mM NaCl solution, lysed individually with 100 μl 2% (w/v) SDS and liquid scintillation counted. As a control non-injected oocytes were also incubated in uptake medium with D-Phe-L-Gln as above.

Y167R-rPepT1 = target: T2, Y167R-rPepT1 (Oryctolagus cuniculus, UniProt P36836, Y167R); settings: both pHout 5.5 and 7.4
T2 construct: expressed in transfected cells; host or cells: Xenopus laevis oocytes injected with cRNA
T2 sequence (P36836 1-707 Y167R): T1 sequence (P36836 1-707 Y167F) with F167R
Experimental: as §1, §2

Y56F/T58Y-rPepT1 = target: T3, Y56F/T58Y-rPepT1 (Oryctolagus cuniculus, UniProt P36836, T58Y/Y56F); settings: both pHout 5.5 and 7.4
T3 construct: expressed in transfected cells; host or cells: Xenopus laevis oocytes injected with cRNA
T3 sequence (P36836 1-707 Y56F/T58Y): T1 sequence (P36836 1-707 Y167F) with Y56F, T58Y, F167Y
Experimental: as §1, §2

reduction of uptake compared to the wild-type (Y167F-rPepT1; both pHout 5.5 and 7.4): > 90% | decrease in rate of uptake compared to the wild-type (Y167F-rPepT1; pHout 5.5, 1 h): ~90% | reduction of uptake compared to the wild-type (Y167R-rPepT1): > 90% | reduction of uptake compared to the wild-type (Y56F/T58Y-rPepT1): > 90%
Substance: [^3H]-D-Phe-L-Gln
